According to PMC7827406, “Structure–Activity Relationship (SAR) Study of Spautin-1 to Entail the Discovery of Novel NEK4 Inhibitors” (International Journal of Molecular Sciences, 2021):
Like-named read-outs stand apart in the source and are kept apart here.

Columns and labels:
Assay in all cases: biochemical
Design in all cases: Eurofins KinaseProfiler full panel at Km ATP, residual kinase activity (%) relative to DMSO
MARK1(h) = MARK1(h) (Homo sapiens, UniProt Q9P0L2)
Outline: (§1)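 Two 10 µM single-concentration screens were run: a competition-binding screen, in which DNA-tagged kinase bound to immobilized ligands was quantified by qPCR, and a radiometric activity panel at Km ATP. Each is expressed as residual kinase activity (%).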

JAK2(h) = JAK2(h) (Homo sapiens, UniProt O60674)
Outline: as §1

Tie2(R849W)(h) = target: T1, Tie2(R849W)(h) (Homo sapiens, UniProt Q02763, R849W)
T1 construct: gene TEK
Outline: as §1

SNRK(h) = target: T2, SNRK(h) (Homo sapiens, UniProt Q9NRH2)
T2 sequence (Q9NRH2 1-765): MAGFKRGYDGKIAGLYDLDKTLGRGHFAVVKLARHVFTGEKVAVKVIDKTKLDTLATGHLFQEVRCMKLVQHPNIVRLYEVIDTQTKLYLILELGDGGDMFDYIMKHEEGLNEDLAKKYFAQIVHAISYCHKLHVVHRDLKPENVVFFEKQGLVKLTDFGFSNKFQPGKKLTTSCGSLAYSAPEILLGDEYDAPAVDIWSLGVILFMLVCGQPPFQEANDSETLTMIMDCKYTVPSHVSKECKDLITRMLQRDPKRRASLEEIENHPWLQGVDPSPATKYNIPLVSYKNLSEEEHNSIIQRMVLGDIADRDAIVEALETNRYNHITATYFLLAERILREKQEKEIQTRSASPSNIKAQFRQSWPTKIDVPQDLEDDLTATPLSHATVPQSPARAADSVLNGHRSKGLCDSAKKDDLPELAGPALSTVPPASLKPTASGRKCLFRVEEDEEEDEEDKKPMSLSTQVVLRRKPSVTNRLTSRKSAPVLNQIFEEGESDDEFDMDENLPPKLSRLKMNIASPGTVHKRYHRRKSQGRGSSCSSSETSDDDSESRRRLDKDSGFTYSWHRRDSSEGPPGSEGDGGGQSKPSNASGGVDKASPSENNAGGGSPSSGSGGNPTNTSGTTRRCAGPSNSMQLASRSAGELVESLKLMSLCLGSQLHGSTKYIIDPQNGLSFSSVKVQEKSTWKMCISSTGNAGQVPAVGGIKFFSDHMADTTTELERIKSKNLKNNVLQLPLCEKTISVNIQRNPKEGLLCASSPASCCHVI
Outline: as §1

EGFR(T790M,L858R)(h) = EGFR(T790M,L858R)(h) (Homo sapiens, UniProt P00533, L858R/T790M)
Outline: as §1

Abl (M351T)(h) = target: T3, Abl (M351T)(h) (Homo sapiens, UniProt P00519, M351T)
T3 construct: gene ABL1
Outline: as §1

Aurora-A(h) = target: T4, Aurora-A(h) (Homo sapiens, UniProt O14965)
T4 construct: gene AURKA
T4 sequence (O14965 1-403): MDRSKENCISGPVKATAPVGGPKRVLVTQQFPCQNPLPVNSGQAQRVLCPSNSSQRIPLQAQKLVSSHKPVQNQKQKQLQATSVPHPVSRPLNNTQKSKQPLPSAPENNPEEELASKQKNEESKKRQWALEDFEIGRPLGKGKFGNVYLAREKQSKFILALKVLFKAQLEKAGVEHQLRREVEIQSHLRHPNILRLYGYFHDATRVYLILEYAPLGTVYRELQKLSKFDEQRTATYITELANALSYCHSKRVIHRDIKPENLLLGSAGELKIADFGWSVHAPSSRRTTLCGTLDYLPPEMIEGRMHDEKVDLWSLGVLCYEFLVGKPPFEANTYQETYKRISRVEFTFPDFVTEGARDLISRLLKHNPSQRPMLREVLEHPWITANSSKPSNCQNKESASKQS
Outline: as §1

KDR(h) = KDR(h) (Homo sapiens, UniProt P35968)
Outline: as §1

[1] = read-out: Residual activity (%) Spautin-1 5aa
[2] = read-out: Residual activity (%) 5as
[3] = read-out: Residual activity (%) 5at
[4] = read-out: Residual activity (%) 5ay

Sequence of KDR(h) (P35968 whole entry): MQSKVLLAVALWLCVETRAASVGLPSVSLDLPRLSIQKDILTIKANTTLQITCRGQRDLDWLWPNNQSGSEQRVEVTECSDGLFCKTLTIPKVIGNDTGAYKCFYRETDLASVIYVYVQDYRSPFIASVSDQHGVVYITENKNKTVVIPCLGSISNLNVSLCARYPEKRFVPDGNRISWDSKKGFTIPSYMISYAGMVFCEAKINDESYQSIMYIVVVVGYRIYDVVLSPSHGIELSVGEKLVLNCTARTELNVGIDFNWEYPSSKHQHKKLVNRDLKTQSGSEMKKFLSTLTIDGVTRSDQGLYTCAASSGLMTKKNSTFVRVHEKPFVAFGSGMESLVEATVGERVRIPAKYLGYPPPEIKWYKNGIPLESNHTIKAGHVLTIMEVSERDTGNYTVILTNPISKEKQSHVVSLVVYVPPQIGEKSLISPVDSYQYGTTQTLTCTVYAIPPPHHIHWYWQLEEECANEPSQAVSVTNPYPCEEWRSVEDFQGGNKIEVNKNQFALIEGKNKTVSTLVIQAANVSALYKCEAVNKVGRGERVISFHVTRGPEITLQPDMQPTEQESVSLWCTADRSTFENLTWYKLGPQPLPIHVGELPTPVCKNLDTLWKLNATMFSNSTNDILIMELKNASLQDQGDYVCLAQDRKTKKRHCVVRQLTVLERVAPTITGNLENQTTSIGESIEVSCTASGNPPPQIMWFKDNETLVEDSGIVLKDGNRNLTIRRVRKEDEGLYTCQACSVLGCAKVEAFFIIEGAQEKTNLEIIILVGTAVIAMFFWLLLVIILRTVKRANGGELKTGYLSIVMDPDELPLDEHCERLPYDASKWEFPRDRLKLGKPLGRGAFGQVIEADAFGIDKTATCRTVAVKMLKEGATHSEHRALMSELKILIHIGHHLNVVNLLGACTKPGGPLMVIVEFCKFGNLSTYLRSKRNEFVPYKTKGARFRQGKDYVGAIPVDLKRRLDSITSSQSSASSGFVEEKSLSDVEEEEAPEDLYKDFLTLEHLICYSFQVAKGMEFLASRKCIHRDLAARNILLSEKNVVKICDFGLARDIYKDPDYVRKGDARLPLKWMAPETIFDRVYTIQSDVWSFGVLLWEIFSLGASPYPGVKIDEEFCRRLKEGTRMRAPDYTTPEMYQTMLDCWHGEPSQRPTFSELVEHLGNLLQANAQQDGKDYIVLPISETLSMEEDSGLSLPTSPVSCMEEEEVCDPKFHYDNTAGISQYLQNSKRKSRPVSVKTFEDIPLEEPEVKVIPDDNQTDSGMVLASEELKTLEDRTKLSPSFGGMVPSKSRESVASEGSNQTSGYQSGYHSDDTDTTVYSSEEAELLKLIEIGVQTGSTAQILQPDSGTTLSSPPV
T1 sequence (Q02763 whole entry R849W): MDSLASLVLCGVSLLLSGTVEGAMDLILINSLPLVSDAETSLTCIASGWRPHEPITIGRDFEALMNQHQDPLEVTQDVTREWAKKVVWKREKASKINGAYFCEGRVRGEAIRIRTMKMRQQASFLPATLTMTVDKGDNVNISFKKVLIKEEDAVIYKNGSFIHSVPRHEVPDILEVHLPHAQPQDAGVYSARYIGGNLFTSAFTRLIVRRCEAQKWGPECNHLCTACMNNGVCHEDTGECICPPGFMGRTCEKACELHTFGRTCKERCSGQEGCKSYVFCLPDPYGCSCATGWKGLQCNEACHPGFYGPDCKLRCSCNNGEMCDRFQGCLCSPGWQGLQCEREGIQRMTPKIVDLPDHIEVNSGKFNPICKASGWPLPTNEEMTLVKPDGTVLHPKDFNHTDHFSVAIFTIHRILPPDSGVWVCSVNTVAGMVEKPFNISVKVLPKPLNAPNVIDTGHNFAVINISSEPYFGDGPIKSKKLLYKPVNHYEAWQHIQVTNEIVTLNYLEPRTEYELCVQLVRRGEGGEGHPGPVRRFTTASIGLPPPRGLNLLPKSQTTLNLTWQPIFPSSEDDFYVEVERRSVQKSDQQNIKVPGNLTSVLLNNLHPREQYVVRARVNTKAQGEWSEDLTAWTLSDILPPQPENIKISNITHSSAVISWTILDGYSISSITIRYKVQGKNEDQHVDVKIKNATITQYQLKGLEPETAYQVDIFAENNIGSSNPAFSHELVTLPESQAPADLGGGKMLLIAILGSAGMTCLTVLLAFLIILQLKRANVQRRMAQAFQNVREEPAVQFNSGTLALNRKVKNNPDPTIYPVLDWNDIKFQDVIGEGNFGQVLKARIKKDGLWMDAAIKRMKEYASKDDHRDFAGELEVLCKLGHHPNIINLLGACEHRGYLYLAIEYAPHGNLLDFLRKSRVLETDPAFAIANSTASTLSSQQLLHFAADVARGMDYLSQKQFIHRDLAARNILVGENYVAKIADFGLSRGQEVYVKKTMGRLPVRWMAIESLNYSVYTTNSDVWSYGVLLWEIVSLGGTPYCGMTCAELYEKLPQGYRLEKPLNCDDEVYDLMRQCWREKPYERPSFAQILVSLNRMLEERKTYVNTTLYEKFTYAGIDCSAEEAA
Sequence of EGFR(T790M,L858R)(h) (P00533 whole entry T790M/L858R): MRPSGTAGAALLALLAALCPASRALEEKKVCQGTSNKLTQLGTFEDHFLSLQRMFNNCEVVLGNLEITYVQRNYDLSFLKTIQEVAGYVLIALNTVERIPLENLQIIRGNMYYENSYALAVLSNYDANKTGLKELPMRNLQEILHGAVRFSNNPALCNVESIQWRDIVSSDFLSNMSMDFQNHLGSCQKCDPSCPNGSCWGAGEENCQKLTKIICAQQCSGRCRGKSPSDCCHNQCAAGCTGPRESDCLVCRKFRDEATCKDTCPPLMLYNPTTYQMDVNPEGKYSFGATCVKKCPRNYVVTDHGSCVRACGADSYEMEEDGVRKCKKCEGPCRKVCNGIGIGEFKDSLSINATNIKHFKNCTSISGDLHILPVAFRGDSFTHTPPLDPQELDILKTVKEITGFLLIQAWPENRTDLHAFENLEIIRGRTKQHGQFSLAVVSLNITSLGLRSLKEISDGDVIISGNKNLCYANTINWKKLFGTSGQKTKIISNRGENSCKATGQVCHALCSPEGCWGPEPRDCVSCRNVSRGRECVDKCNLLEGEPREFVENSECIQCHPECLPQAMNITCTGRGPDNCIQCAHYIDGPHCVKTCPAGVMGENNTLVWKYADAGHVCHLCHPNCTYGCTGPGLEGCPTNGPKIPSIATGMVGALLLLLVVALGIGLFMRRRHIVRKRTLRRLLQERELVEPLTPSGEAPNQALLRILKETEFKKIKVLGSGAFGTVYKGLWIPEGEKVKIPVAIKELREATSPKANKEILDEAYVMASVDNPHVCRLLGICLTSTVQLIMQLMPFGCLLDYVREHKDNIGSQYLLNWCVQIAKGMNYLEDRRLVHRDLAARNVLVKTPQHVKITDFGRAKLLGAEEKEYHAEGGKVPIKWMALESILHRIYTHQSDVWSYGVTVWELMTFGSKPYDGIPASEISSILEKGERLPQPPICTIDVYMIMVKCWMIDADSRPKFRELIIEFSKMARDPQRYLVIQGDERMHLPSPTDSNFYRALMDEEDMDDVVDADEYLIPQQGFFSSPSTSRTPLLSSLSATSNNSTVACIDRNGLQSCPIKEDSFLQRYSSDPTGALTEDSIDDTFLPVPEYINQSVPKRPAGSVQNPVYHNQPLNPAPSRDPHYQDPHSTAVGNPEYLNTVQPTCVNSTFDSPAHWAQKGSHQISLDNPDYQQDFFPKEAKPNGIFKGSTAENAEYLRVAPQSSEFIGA
Sequence of MARK1(h) (Q9P0L2 whole entry): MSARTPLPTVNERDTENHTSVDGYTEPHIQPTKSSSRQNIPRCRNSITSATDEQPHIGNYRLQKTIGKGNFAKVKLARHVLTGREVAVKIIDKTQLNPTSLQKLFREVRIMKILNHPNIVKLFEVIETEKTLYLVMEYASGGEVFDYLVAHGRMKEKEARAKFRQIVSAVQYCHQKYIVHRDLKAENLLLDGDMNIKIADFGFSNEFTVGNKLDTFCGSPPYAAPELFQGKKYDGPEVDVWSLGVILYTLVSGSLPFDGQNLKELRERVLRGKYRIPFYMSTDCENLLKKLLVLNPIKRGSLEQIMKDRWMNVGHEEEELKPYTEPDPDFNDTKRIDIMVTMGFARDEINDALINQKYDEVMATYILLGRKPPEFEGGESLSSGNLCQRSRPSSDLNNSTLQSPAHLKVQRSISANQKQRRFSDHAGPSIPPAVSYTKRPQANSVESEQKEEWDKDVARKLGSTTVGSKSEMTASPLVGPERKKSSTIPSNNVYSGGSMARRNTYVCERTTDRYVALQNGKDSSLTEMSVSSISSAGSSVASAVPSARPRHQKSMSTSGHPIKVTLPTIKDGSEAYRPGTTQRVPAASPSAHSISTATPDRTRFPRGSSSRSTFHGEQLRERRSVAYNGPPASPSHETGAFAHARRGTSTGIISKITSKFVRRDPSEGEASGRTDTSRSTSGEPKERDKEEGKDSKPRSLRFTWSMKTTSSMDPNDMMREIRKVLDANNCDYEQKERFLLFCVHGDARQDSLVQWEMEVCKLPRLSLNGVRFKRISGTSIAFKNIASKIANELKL

Compound: Fc1ccc(CNc2ncnc3ccc(F)cc23)cc1 [5aa, 6-Fluoro-N-(4-fluorobenzyl)-4-Quinazolinamine]
- remaining activity at 10 µM (MARK1(h); [1]): 89%
- remaining activity at 10 µM (JAK2(h); [1]): 91%
- remaining activity at 10 µM (Tie2(R849W)(h); [1]): 91%
- remaining activity at 10 µM (SNRK(h); [1]): 103%
- remaining activity at 10 µM (EGFR(T790M,L858R)(h); [1]): 96%
- remaining activity at 10 µM (Abl (M351T)(h); [1]): 93%
- remaining activity at 10 µM (Aurora-A(h); [1]): 81%
- remaining activity at 10 µM (KDR(h); [1]): 86%

Compound: Fc1ccc(CCNc2ncnc3ccc(F)cc23)cc1 [5as, 6-Fluoro-N-[2-(4-Fluorophenyl)Ethyl]-4-Quinazolinamine]
- remaining activity at 10 µM (MARK1(h); [2]): 96%
- remaining activity at 10 µM (JAK2(h); [2]): 93%
- remaining activity at 10 µM (Tie2(R849W)(h); [2]): 98%
- remaining activity at 10 µM (SNRK(h); [2]): 104%
- remaining activity at 10 µM (EGFR(T790M,L858R)(h); [2]): 93%
- remaining activity at 10 µM (Abl (M351T)(h); [2]): 73%
- remaining activity at 10 µM (Aurora-A(h); [2]): 87%
- remaining activity at 10 µM (KDR(h); [2]): 77%

Compound: Fc1ccc2ncnc(NCCc3ccc(Cl)cc3)c2c1 [5at, N-[2-(4-Chlorophenyl)Ethyl]-6-Fluoro-4-Quinazolinamine]
- remaining activity at 10 µM (MARK1(h); [3]): 82%
- remaining activity at 10 µM (JAK2(h); [3]): 86%
- remaining activity at 10 µM (Tie2(R849W)(h); [3]): 90%
- remaining activity at 10 µM (SNRK(h); [3]): 103%
- remaining activity at 10 µM (EGFR(T790M,L858R)(h); [3]): 85%
- remaining activity at 10 µM (Abl (M351T)(h); [3]): 69%
- remaining activity at 10 µM (Aurora-A(h); [3]): 70%
- remaining activity at 10 µM (KDR(h); [3]): 74%

Compound: COc1ccc2ncnc(Nc3cccc(F)c3)c2c1 [5ay, N-(3-Fluorophenyl)-6-Methoxy-4-Quinazolinamine]
- remaining activity at 10 µM (MARK1(h); [4]): 89%
- remaining activity at 10 µM (JAK2(h); [4]): 108%
- remaining activity at 10 µM (Tie2(R849W)(h); [4]): 110%
- remaining activity at 10 µM (SNRK(h); [4]): 79%
- remaining activity at 10 µM (EGFR(T790M,L858R)(h); [4]): 69%
- remaining activity at 10 µM (Abl (M351T)(h); [4]): 76%
- remaining activity at 10 µM (Aurora-A(h); [4]): 79%
- remaining activity at 10 µM (KDR(h); [4]): 64%
